The subject of experiment [1] is macular degeneration. The experiment is described as follows: Clinical case: sublingual progesterone in a patient with macular degeneration. Format: in vivo, human. As to the method:
An adult human presented with macular degeneration. They had visual acuity of 20/200 in each eye. After the use of sublingual progesterone, one application, their vision improved to 20/100 and 20/40. […] They were evaluated for hormone allergy therapy by assessing their anti-hormone antibodies and found to have elevated levels of IgE, IgG, and IgM antibodies to progesterone.
The subject then received progesterone 1:10 sublingual drops which they continue to use.

Experiment [2] relates to serum anti-estrogen IgG antibodies. The experiment is described as follows: Competition ELISA: absorption of serum IgG anti-estrogen with specific and non-specific antigens. Format: binding, human. The conditions noted are these: for Absorption of serum IgG antibodies, in words: antigen added to the liquid phase; for Inhibition of anti-estrogen binding to estrogen (IgG), range over samples: antigen in liquid phase, Table 2; for Percent inhibition after absorption (IgG) / Serum anti-estrogen IgG level after absorption: antigen 250 μg/mL; for Serum anti-estrogen IgG level after absorption: optical density at 405 nm. How it is done:
(§1) Enzyme-linked immunosorbent assay (ELISA) was used for testing antibodies against estrogen and progesterone in the sera of patients with premenstrual asthma and with control subjects. […] Plates were incubated overnight at 4° C. and then washed three times with […] of Tris-buffered saline (TBS) containing 0.05% Tween 20, pH 7.4. […] Plates were incubated for 2 h (for IgG and IgM) and overnight (for IgE), and then washed four times with PBS-Tween 20. Alkaline-phosphatase-conjugated goat anti-human IgG, IgM or IgE F(ab′)2 fragment at optimal dilution of 1:700 (IgG); 1:500 (IgM) and 1:250 (IgE) was added to corresponding wells. The plates were then incubated for an additional 2 h at room temperature. After washing five times with TBS-Tween buffer, the enzyme reaction was started by adding 100 μl of para-nitrophenylphosphate in 0.1 mL of diethanolamine buffer (1 mg/ml) containing 1 mM MgCl2 and sodium azide, pH 9.8. The reaction was stopped 45 minutes later with 50 μl of 1 N NaOH. The optical density was read at 405 nm (OD405) with a microtiter reader.
(§2) 100 μl of serum diluent buffer was added to all wells. […] After a 60-minute incubation, 100 μl serum anti-estrogen or anti-progesterone was added to all wells. […] Results were calculated as a percentage of inhibition in antigen-antibody reaction.
(§3) To examine whether antibodies to estrogen or progesterone are specific or cross-reactive, competition ELISA was performed by adding specific and non-specific antigens in liquid phase and examined prevention of serum antibody binding to the antigen in solid phase. […] This cross-reaction between estrogen and progesterone antibodies may be due to structural similarities between these two hormones.

Experiment [3] concerns serum anti-estrogen IgE antibodies. The experiment is described as follows: Competition ELISA: absorption of serum IgE anti-estrogen with specific and non-specific antigens. Format: binding, human. The note with it: for Absorption of serum IgE antibodies, in words: antigen added to the liquid phase; for Inhibition of IgE anti-estrogen binding, range over samples: antigen in liquid phase, summary of Table 3; for Percent inhibition after absorption (IgE) / Serum anti-estrogen IgE level after absorption: antigen 250 μg/mL; for Serum anti-estrogen IgE level after absorption: optical density at 405 nm. As to the method: as §1, §2, §3

The mark [4] stands for this setting: serum sample 1, before absorption 1.83.
The mark [5] stands for this setting: serum sample 2, before absorption 1.25.
The mark [6] stands for this setting: serum sample 3, before absorption 0.76.
The mark [7] stands for this setting: serum sample 1, before absorption 2.15.
[8] abbreviates: serum sample 2, before absorption 1.66.
[9] abbreviates: serum sample 3, before absorption 1.34.

Values joined by “and” are separate entries in the source; they are usually repeats but may differ in a detail not shown here. Identical values can stand only once.

On to `CC(=O)[C@H]1CC[C@H]2[C@@H]3CCC4=CC(=O)CC[C@]4(C)[C@H]3CC[C@]12C` [progesterone], for which the “Visual acuity after treatment” value in experiment [1] (adult human female, sublingual, one application, baseline 20/200 in each eye) is 20/100 and 20/40. Besides, the “Ophthalmologist's assessment” value in experiment [1] (return visit two weeks later, as reported by the patient) is recorded as “remarkably improved”.

“En: Estrogen (estradiol) bound to bovine serum albumin, purchased from Sigma; specific antigen in competition ELISA”: the “Absorption of serum IgG antibodies, in words” value in experiment [2] is reported as “significantly absorbed”. Moreover, the “Inhibition of anti-estrogen binding to estrogen (IgG), range over samples” value in experiment [2] is on record as 52-67%. Further, the figures for the “Percent inhibition after absorption (IgG)” value in experiment [2] (serum sample 1), in experiment [2] (serum sample 2) and in experiment [2] (serum sample 3) were “(67%)”, “(59%)” and “(52%)”, respectively. In addition, the “Serum anti-estrogen IgG level after absorption” value (from here on “Serum anti-estrogen IgG level”) is on record as 0.61 in experiment [2] (setting [4]), 0.52 in experiment [2] (setting [5]) and 0.37 in experiment [2] (setting [6]). Besides, the “Absorption of serum IgE antibodies, in words” value in experiment [3] is “significantly absorbed”. Besides, in experiment [3], the “Inhibition of IgE anti-estrogen binding, range over samples” value was 54-62%. Further, the results for the “Percent inhibition after absorption (IgE)” value in experiment [3] (serum sample 1), in experiment [3] (serum sample 2) and in experiment [3] (serum sample 3) were “(55%)”, “(54%)” and “(62%)”, respectively. The entries for the “Serum anti-estrogen IgE level after absorption” value (from here on “Serum anti-estrogen IgE level”) in experiment [3] (setting [7]), in experiment [3] (setting [8]) and in experiment [3] (setting [9]) were 0.96, 0.77 and 0.51, respectively.

With “Pn: Progesterone bound to bovine serum albumin, purchased from Sigma; antigen in competition ELISA”, in experiment [2], the “Absorption of serum IgG antibodies, in words” value is “significantly absorbed”. In addition, in experiment [2], the “Inhibition of anti-estrogen binding to estrogen (IgG), range over samples” value is 41-52%. Besides, the entries for the “Percent inhibition after absorption (IgG)” value in experiment [2] (serum sample 1), in experiment [2] (serum sample 2) and in experiment [2] (serum sample 3) were “(52%)”, “(45%)” and “(41%)”, respectively. Moreover, the entries for the “Serum anti-estrogen IgG level” value in experiment [2] (setting [4]), in experiment [2] (setting [5]) and in experiment [2] (setting [6]) were 0.87, 0.69 and 0.45, respectively. Besides, in experiment [3], the “Absorption of serum IgE antibodies, in words” value was “significantly absorbed”. Besides, in experiment [3], the “Inhibition of IgE anti-estrogen binding, range over samples” value is recorded as 37-43%. The “Percent inhibition after absorption (IgE)” value is reported as “(37%)” in experiment [3] (serum sample 1) and “(43%)” in experiment [3] (serum sample 3). The “Serum anti-estrogen IgE level” value in experiment [3] (setting [7]) is 1.35; in experiment [3] (setting [8]) it was 0.98; in experiment [3] (setting [9]), 0.76.

For bovine serum albumin [BSA], in experiment [2], the “Absorption of serum IgG antibodies, in words” value was “did not absorb”. For the same molecule, the “Serum anti-estrogen IgG level” value in experiment [2] (setting [4]) is given as 1.79; in experiment [2] (setting [5]), 1.13; in experiment [2] (setting [6]), 0.81. Further, in experiment [3], the “Absorption of serum IgE antibodies, in words” value is “did not absorb”. The “Serum anti-estrogen IgE level” value in experiment [3] (setting [7]) was 2.24; in experiment [3] (setting [8]) it was 1.53; in experiment [3] (setting [9]) it was 1.26.

B1: myelin basic protein (protein, UniProt P02686 1-304, looked up)
Myelin basic protein: MGNHAGKRELNAEKASTNSETNRGESEKKRNLGELSRTTSEDNEVFGEADANQNNGTSSQDTAVTDSKRTADPKNAWQDAHPADPGSRPHLIRLFSRDAPGREDNTFKDRPSESDELQTIQEDSAATSESLDVMASQKRPSQRHGSKYLATASTMDHARHGFLPRHRDTGILDSIGRFFGGDRGAPKRGSGKDSHHPARTAHYGSLPQKSHGRTQDENPVVHFFKNIVTPRTPPPSQGKGRGLSLSRFSWGAEGQRPGFGYGGRASDYKSAHKGFKGVDAQGTLSKIFKLGGRDSRSGSPMARR
Consider B1, for which, in experiment [2], the “Absorption of serum IgG antibodies, in words” value is reported as “did not absorb”. The figures for the “Serum anti-estrogen IgG level” value in experiment [2] (setting [4]), in experiment [2] (setting [5]) and in experiment [2] (setting [6]) were 1.67, 1.13 and 0.68, respectively. Also, the “Absorption of serum IgE antibodies, in words” value in experiment [3] was “did not absorb”. Further, the results for the “Serum anti-estrogen IgE level” value in experiment [3] (setting [7]), in experiment [3] (setting [8]) and in experiment [3] (setting [9]) were 2.05, 1.73 and 1.11, respectively.

(Values after US20050239757A1, “Hormone treatment of macular degeneration” (priority 2004, published 2005).)
